Earlier results as cited in patent US8962668B2, “Treatment of length dependent neuropathy” (Arcion Therapeutics, Inc., priority 2005, dated 2015).

Tested on: patients with painful diabetic neuropathy

## Clc1cccc(Cl)c1N=C1NCCN1 [clonidine]
placebo-controlled cross-over pain trial (Zeigler et al.)
  difference between clonidine transdermal patches and placebo patches: no statistically significant difference
Responders rechallenged, highest transdermal patch dosage, p<0.015
  pain reduction relative to placebo: modest although statistically significant
Transdermal patches, twelve of forty-one patients who completed initial course (Byas-Smith et al.)
  clonidine responders: 29%
